Test results: patent publication US9428536B2, “Immunostimulatory G, U-containing oligoribonucleotides” (Zoetis Belgium SA, priority 2002, dated 2016)
Oligonucleotides are written 5' to 3', each unit as a sugar letter and its base; * is a phosphorothioate linkage, no mark a phosphodiester; rarer units and linkages stand in square brackets, end groups in braces. Plain capitals give the bases only. d = 2'-deoxy (DNA); r = 2'-OH (RNA)

What was measured:
Type in all cases: cell-based
human PBMC [1] = assay: Human PBMC TNF-α secretion, ELISA; settings: for TNF response of human PBMC: FIG. 15, 30 μM; for dose-response of TNF-α secretion: Example 2, 10, 3 or 1 μg RNA with 10 μg DOTAP per 200 μl well; for dose-response of TNF-α secretion / TNF-α response of human PBMC (in words): 16 hours; for TNF-α response of human PBMC (in words): Example 1, FIG. 2, RNA 50 μg/ml
Protocol: (§1) Human peripheral blood mononuclear cells (PBMCs) were isolated from healthy donors, plated at 3×10^5 cells/well, stimulated in vitro with various test and control immunostimulatory agents for 16 hours, and then analyzed by enzyme-linked immunosorbent assay (ELISA) using matched antibody pairs from BD-Pharmingen for secreted cytokines IL-12 p40 and TNF-α, performed according to the manufacturer's protocol. Also included were certain negative controls, including medium alone and DOTAP (10 μg/200 μl culture well; “Liposomes”) alone. The control immunostimulatory agents included the imidazoquinolone R-848 (2 μg/ml), lipopolysaccharide (LPS; 1 μg/ml), Pam3Cys (5 μg/ml), poly IC (50 μg/ml), and CpG DNA (50 μg/ml). These are reported ligands for TLR7, TLR4, TLR2, TLR3, and TLR9, respectively. Test immunostimulatory agents included the following RNA molecules, each at 50 μg/ml, with and without DOTAP (10 μg total “with Liposomes” and “without Liposomes”, respectively): GUGUUUAC alone; GUAGGCAC alone; GUGUUUAC in combination with GUAGGCAC; GUAGGA; GAAGGCAC; CUAGGCAC; CUCGGCAC; and CCCCCCCC. These RNA oligonucleotides each contained a phosphorothioate linkage between the penultimate and 3′ terminal nucleoside.
The experiments described in the preceding example were repeated with varied concentrations of RNA oligonucleotides in order to assess the dose-response behavior of human PBMCs to G,U-containing RNA oligonucleotides of the invention. A total of 10, 3 or 1 μg RNA was added to 10 μg DOTAP and then added to the 200 μl culture wells. After 16 hours IL-12 p40 and TNF-α ELISAs were performed as described in Example 1.
(§2) In order to investigate the possibility of using cholesteryl ester-modified RNA oligomer in place of RNA oligomer plus cationic lipid, RNA oligomer GUGUGUGU was prepared with (R 1058) and without (R 1006) a 3′ cholesteryl ester modification. These two RNA oligomers with and without DOTAP, were added over a range of concentrations to overnight cultures of human PBMC. Culture supernatants were harvested, and human TNF-α, IL-12 p40, and IFN-α were measured by ELISA using matched antibody pairs from BD-Pharmingen according to the manufacturer's protocol.
(§3) RNA oligomers GUGUGUGU, GUGUGUG, GUGUGU, GUGUG, GUGU, GUG, and GU, with and without DOTAP, were added over a range of concentrations to overnight cultures of human PBMC. Culture supernatants were harvested, and human TNF-α, IL-12 p40, and IFN-α were measured by ELISA using matched antibody pairs from BD-Pharmingen according to the manufacturer's protocol.
(§4) RNA oligomers, with and without DOTAP, were added over a range of concentrations to overnight cultures of human PBMC. Culture supernatants were harvested, and human TNF-α, IL-12 p40, and IFN-α were measured by ELISA using matched antibody pairs from BD-Pharmingen according to the manufacturer's protocol.
Human PBMC were cultured overnight in the presence of added DNA:RNA conjugate, with and without DOTAP. Culture supernatants were harvested and human TNF-α, IL-6, IL-12 p40, IP-10, and IFN-α were measured by ELISA using matched antibody pairs from BD-Pharmingen according to the manufacturer's protocol.
Human PBMC were cultured overnight in the presence of various concentrations (1, 3, and 10 μg/ml) of tRNA obtained from wheat germ, bovine, yeast, and E. coli sources, added to the culture medium with and without DOTAP. Culture supernatants were harvested and human TNF-α and IL-12 p40 were measured by ELISA using matched antibody pairs from BD-Pharmingen according to the manufacturer's protocol. […] In addition, E. coli tRNA at 3 and 10 μg/ml induced minor amounts of both cytokines even without DOTAP. […]
FIG. 10 depicts the responsiveness of human PBMC to stringent response factor (SRF). SRF is produced by rapidly growing bacteria (in this case Listeria monocytogenes) in rich media until their late log phase. The bacteria were pelleted and resuspended in an equal volume of PBS for 24 h. The mixture is centrifuged to remove the bacteria. […]

human PBMC [2] = assay: Human PBMC IFN-α secretion, ELISA
Protocol: as §2, §3, §4
In like manner, an all-phosphodiester 40-mer capable of forming a stem-loop structure and having a base sequence as provided by 5′-[…]-3′ (R 1041; SEQ ID NO:10) was synthesized and tested in overnight culture with human PBMC.

human PBMC [3] = assay: Human PBMC IL-12 p40 secretion, ELISA; settings: for EC50 / IL-12 p40 max: Table 2, oligomer length, human PBMC overnight, including DOTAP; for dose-response of IL-12 p40 secretion: Example 2, FIG. 3, 10, 3 or 1 μg RNA with 10 μg DOTAP per 200 μl well; for dose-response of IL-12 p40 secretion / IL-12 p40 response of human PBMC (in words): 16 hours; for IL-12 p40 response of human PBMC (in words): Example 1, FIG. 1, RNA 50 μg/ml with and without DOTAP, R-848 2 μg/ml, LPS 1 μg/ml, Pam3Cys 5 μg/ml, poly IC 50 μg/ml
Protocol: as §1
The experiments described in the preceding example were repeated with varied concentrations of RNA oligonucleotides in order to assess the dose-response behavior of human PBMCs to G,U-containing RNA oligonucleotides of the invention. A total of 10, 3 or 1 μg RNA was added to 10 μg DOTAP and then added to the 200 μl culture wells. After 16 hours IL-12 p40 and TNF-α ELISAs were performed as described in Example 1. […]
RNA oligomers GUGUGUGU, GUGUGUG, GUGUGU, GUGUG, GUGU, GUG, and GU, with and without DOTAP, were added over a range of concentrations to overnight cultures of human PBMC. Culture supernatants were harvested, and human TNF-α, IL-12 p40, and IFN-α were measured by ELISA using matched antibody pairs from BD-Pharmingen according to the manufacturer's protocol. […]

[4] = Table 2, oligomer length, human PBMC overnight, including DOTAP
[5] = Table 2, oligomer length, human PBMC overnight, including DOTAP, read-out: TNF-α EC50
[6] = Table 2, oligomer length, human PBMC overnight, including DOTAP, read-out: IFN-α EC50
[7] = Table 3, internucleoside linkages, human PBMC overnight, including DOTAP
[8] = Table 3, internucleoside linkages, human PBMC overnight, including DOTAP, read-out: TNF-α EC50
[9] = Table 3, internucleoside linkages, human PBMC overnight, including DOTAP, read-out: IFN-α EC50
[10] = Table 1, human PBMC overnight culture, with DOTAP
[11] = Table 1, human PBMC overnight culture, with DOTAP, read-out: TNF-α + DOTAP EC50
[12] = Table 1, human PBMC overnight culture, without DOTAP
[13] = Table 1, human PBMC overnight culture, without DOTAP, read-out: TNF-α − DOTAP EC50
[14] = Table 1, human PBMC overnight culture, with DOTAP, read-out: IFN-α + DOTAP EC50

## G*U*G*U*G*U*G*U_dG_dG*dG*dG*dG*dG (rG*rU*rG*rU*rG*rU*rG*rUdGdG*dG*dG*dG*dG) [R 1060]
Human PBMC [1]; Table 4, DNA:RNA conjugates, human PBMC overnight, including DOTAP
  TNF-α max: 20000 pg/mL
Human PBMC [1]; Table 4, DNA:RNA conjugates, human PBMC overnight, including DOTAP, read-out: TNF-α EC50
  EC50: 4.9 µM

## 5′-CACACACUGCUUAAGCGCUUGCCUGCUUAAGUAGUGUGUG-3′ (RNA, phosphodiester; forms stem-loop structure) [R 1041, all-phosphodiester 40-mer capable of forming a stem-loop structure]
Human PBMC [2]; overnight culture with human PBMC
  IFN-α induction maximum: 5000 pg/mL
Human PBMC [2]; overnight culture with human PBMC, read-out: IFN-α induction EC50
  EC50: < 0.1 µM

## SEQ ID NO:19: G,U-rich DNA oligonucleotide counterpart of SEQ ID NO:1 (GUUGUGGUUGUGGUUGUG; DNA oligonucleotide, linkage chemistry not given here, further chemistry not given here) [reference compound]
Human PBMC [1]
  TNF response of human PBMC: not

## GUGUGU [R 1049]
Human PBMC [1]; [4]
  TNF-α max: 30000 pg/mL
Human PBMC [1]; [5]
  EC50: 6.7 µM
Human PBMC [2]; [4]
  IFN-α max: 3400 pg/mL
Human PBMC [2]; [6]
  EC50: 4.8 µM
Human PBMC [3]
  EC50: 2.1 µM
  IL-12 p40 max: 8000 pg/mL

## CUCGGCAC
Human PBMC [1]
  dose-response of TNF-α secretion: increasing amounts
Human PBMC [3]
  dose-response of IL-12 p40 secretion: increasing amounts

## GAAGGCAC
Human PBMC [1]
  TNF-α response of human PBMC (in words): did not secrete significant amounts
  dose-response of TNF-α secretion: did not appear to secrete significant amounts
Human PBMC [3]
  IL-12 p40 response of human PBMC (in words): did not secrete significant amounts
  dose-response of IL-12 p40 secretion: appeared not to secrete

## G*U_G*U_G*U_G*U [R 1056]
Human PBMC [1]; [7]
  TNF-α max: 12000 pg/mL
Human PBMC [1]; [8]
  EC50: > 20 µM

## G*U_G*U*G*U*G*U [R 1054]
Human PBMC [1]; [7]
  TNF-α max: 40000 pg/mL
Human PBMC [1]; [8]
  EC50: 5.6 µM
Human PBMC [2]; [7]
  IFN-α max: 3700 pg/mL
Human PBMC [2]; [9]
  EC50: 6.7 µM

## GUGUGUGU [R 1058]
Human PBMC [1]; [10]
  TNF-α + DOTAP max: 75000 pg/mL
Human PBMC [1]; [11]
  EC50: 0.2 µM
Human PBMC [1]; [12]
  TNF-α − DOTAP max: 3000 pg/mL
Human PBMC [1]; [13]
  EC50: 1 µM
Human PBMC [1]; both with and without DOTAP
  potency compared with R 1006 (cytokine induction in human PBMC): more potent
Human PBMC [2]; [10]
  IFN-α + DOTAP max: 3800 pg/mL
Human PBMC [2]; [14]
  EC50: 0.5 µM
Human PBMC [2]; [12]
  IFN-α − DOTAP max: 1500 pg/mL
Human PBMC [2]; Table 1, human PBMC overnight culture, without DOTAP, read-out: IFN-α − DOTAP EC50
  EC50: 0.5 µM

## 5′-GUUGUGGUUGUGGUUGUG-3′ (chemistry not given here) [SEQ ID NO:1, G,U-rich RNA oligonucleotide]
Human PBMC [1]
  TNF response of human PBMC: responsive

## G*U*G*U*G*U*G*U [R 1006]
Human PBMC [1]; [10]
  TNF-α + DOTAP max: 40000 pg/mL
Human PBMC [1]; [11]
  EC50: 2.8 µM
Human PBMC [1]; [12]
  TNF-α − DOTAP max: 2200 pg/mL
Human PBMC [1]; [13]
  EC50: 7.8 µM
Human PBMC [1]; [4]
  TNF-α max: 40000 pg/mL
Human PBMC [1]; [5]
  EC50: 2.8 µM
Human PBMC [1]; [7]
  TNF-α max: 40000 pg/mL
Human PBMC [1]; [8]
  EC50: 2.8 µM
Human PBMC [2]; [10]
  IFN-α + DOTAP max: 5000 pg/mL
Human PBMC [2]; [14]
  EC50: 4.5 µM
Human PBMC [2]; [4]
  IFN-α max: 5000 pg/mL
Human PBMC [2]; [6]
  EC50: 4.5 µM
Human PBMC [2]; [7]
  IFN-α max: 5000 pg/mL
Human PBMC [2]; [9]
  EC50: 4.5 µM
Human PBMC [3]
  EC50: 1.6 µM
  IL-12 p40 max: 7000 pg/mL

## GUGUG [R 1050]
Human PBMC [1]; [4]
  TNF-α max: 40000 pg/mL
Human PBMC [1]; [5]
  EC50: 7.6 µM
Human PBMC [2]; [4]
  IFN-α max: 400 pg/mL
Human PBMC [2]; [6]
  EC50: 6.9 µM
Human PBMC [3]
  EC50: 3.9 µM
  IL-12 p40 max: 14000 pg/mL

## GUAGGCAC
Human PBMC [1]
  dose-response of TNF-α secretion: increasing amounts
Human PBMC [3]
  dose-response of IL-12 p40 secretion: increasing amounts

## CUAGGCAC
Human PBMC [1]
  dose-response of TNF-α secretion: increasing amounts
Human PBMC [3]
  dose-response of IL-12 p40 secretion: increasing amounts

## GUGUUUAC
Human PBMC [1]
  dose-response of TNF-α secretion: increasing amounts
Human PBMC [3]
  dose-response of IL-12 p40 secretion: increasing amounts

## GUG [R 1052]
Human PBMC [2]; [4]
  IFN-α max: 800 pg/mL
Human PBMC [2]; [6]
  EC50: 5.5 µM
Human PBMC [3]
  EC50: > 20 µM
  IL-12 p40 max: 6000 pg/mL

## G_U_G_U_G_U_G_U [R 1057]
Human PBMC [2]; [7]
  IFN-α max: 6000 pg/mL
Human PBMC [2]; [9]
  EC50: 0.1 µM

## G*U_G*U_G*U*G*U [R 1055]
Human PBMC [1]; [7]
  TNF-α max: 20000 pg/mL
Human PBMC [1]; [8]
  EC50: > 20 µM

## GUAGGA
Human PBMC [1]
  TNF-α response of human PBMC (in words): did not secrete significant amounts
Human PBMC [3]
  IL-12 p40 response of human PBMC (in words): little, if any immunostimulatory effect

## CCCCCCCC
Human PBMC [1]
  TNF-α response of human PBMC (in words): did not secrete significant amounts
  dose-response of TNF-α secretion: did not appear to secrete significant amounts
Human PBMC [3]
  IL-12 p40 response of human PBMC (in words): did not secrete significant amounts
  dose-response of IL-12 p40 secretion: appeared not to secrete

## GUGU [R 1051]
Human PBMC [3]
  EC50: > 20 µM
  IL-12 p40 max: 14000 pg/mL
